Measurements from the NIST ThermoML archive (doi:10.1021/je700287u).

Assay: xn = mol fraction of the nth substance listed
Settings: Liquid

CN(CCO)CCO [N-methyldiethanolamine] + O
Settings | mass density [kg/m3]
333.04 K, 10996 kPa, x1 = 0.0369 | 1000
333.04 K, 11991 kPa, x1 = 0.0369 | 1000.4
333.04 K, 12996 kPa, x1 = 0.0369 | 1000.8
333.04 K, 13988 kPa, x1 = 0.0369 | 1001.2
333.04 K, 14991 kPa, x1 = 0.0369 | 1001.6
333.04 K, 15994 kPa, x1 = 0.0369 | 1002
333.04 K, 16992 kPa, x1 = 0.0369 | 1002.4
333.04 K, 17985 kPa, x1 = 0.0369 | 1002.8
333.04 K, 18990 kPa, x1 = 0.0369 | 1003.2
333.04 K, 19977 kPa, x1 = 0.0369 | 1003.6
333.05 K, 1013 kPa, x1 = 0.0893 | 1013
333.05 K, 2006 kPa, x1 = 0.0893 | 1013.4
333.05 K, 2994 kPa, x1 = 0.0893 | 1013.8
333.05 K, 4031 kPa, x1 = 0.0893 | 1014.2
333.05 K, 4999 kPa, x1 = 0.0893 | 1014.6
333.05 K, 6000 kPa, x1 = 0.0893 | 1015
333.05 K, 6995 kPa, x1 = 0.0893 | 1015.4
333.05 K, 8005 kPa, x1 = 0.0893 | 1015.8
333.05 K, 9000 kPa, x1 = 0.0893 | 1016.2
333.05 K, 9992 kPa, x1 = 0.0893 | 1016.5
333.05 K, 10993 kPa, x1 = 0.0893 | 1017
333.05 K, 11998 kPa, x1 = 0.0893 | 1017.3
333.05 K, 13000 kPa, x1 = 0.0893 | 1017.7
333.05 K, 14008 kPa, x1 = 0.0893 | 1018.1
333.05 K, 14983 kPa, x1 = 0.0893 | 1018.5
333.05 K, 16002 kPa, x1 = 0.0893 | 1018.9
333.05 K, 17032 kPa, x1 = 0.0893 | 1019.3
333.05 K, 17945 kPa, x1 = 0.0893 | 1019.6
333.05 K, 18989 kPa, x1 = 0.0893 | 1020
333.05 K, 19994 kPa, x1 = 0.0893 | 1020.4
342.91 K, 1008 kPa, x1 = 0.1302 | 1011.7
342.91 K, 1996 kPa, x1 = 0.1302 | 1012.1
342.91 K, 3044 kPa, x1 = 0.1302 | 1012.5
342.91 K, 4015 kPa, x1 = 0.1302 | 1012.9
342.91 K, 5006 kPa, x1 = 0.1302 | 1013.4
342.91 K, 5995 kPa, x1 = 0.1302 | 1013.8
342.91 K, 7010 kPa, x1 = 0.1302 | 1014.2
342.91 K, 8001 kPa, x1 = 0.1302 | 1014.6
342.91 K, 8996 kPa, x1 = 0.1302 | 1015
342.91 K, 9995 kPa, x1 = 0.1302 | 1015.5
342.91 K, 10992 kPa, x1 = 0.1302 | 1015.9
342.91 K, 12029 kPa, x1 = 0.1302 | 1016.3
342.91 K, 12993 kPa, x1 = 0.1302 | 1016.7
342.91 K, 13996 kPa, x1 = 0.1302 | 1017.1
342.91 K, 14997 kPa, x1 = 0.1302 | 1017.5
342.91 K, 15998 kPa, x1 = 0.1302 | 1017.9
342.91 K, 16997 kPa, x1 = 0.1302 | 1018.3
342.91 K, 18033 kPa, x1 = 0.1302 | 1018.8
342.91 K, 18977 kPa, x1 = 0.1302 | 1019.2
342.91 K, 19980 kPa, x1 = 0.1302 | 1019.6
342.94 K, 1029 kPa, x1 = 0.0893 | 1005.9
342.94 K, 1996 kPa, x1 = 0.0893 | 1006.3
342.94 K, 3018 kPa, x1 = 0.0893 | 1006.7
342.94 K, 3995 kPa, x1 = 0.0893 | 1007.1
342.94 K, 5000 kPa, x1 = 0.0893 | 1007.5
342.94 K, 5992 kPa, x1 = 0.0893 | 1007.9
342.94 K, 7008 kPa, x1 = 0.0893 | 1008.3
342.94 K, 7994 kPa, x1 = 0.0893 | 1008.8
342.94 K, 9001 kPa, x1 = 0.0893 | 1009.1
342.94 K, 9994 kPa, x1 = 0.0893 | 1009.6
342.94 K, 10983 kPa, x1 = 0.0893 | 1010
342.94 K, 12000 kPa, x1 = 0.0893 | 1010.4
342.94 K, 12996 kPa, x1 = 0.0893 | 1010.8
342.94 K, 14014 kPa, x1 = 0.0893 | 1011.2
342.94 K, 14994 kPa, x1 = 0.0893 | 1011.6
342.94 K, 15989 kPa, x1 = 0.0893 | 1012
342.94 K, 16991 kPa, x1 = 0.0893 | 1012.4
342.94 K, 17989 kPa, x1 = 0.0893 | 1012.8
342.94 K, 18984 kPa, x1 = 0.0893 | 1013.2
342.94 K, 19988 kPa, x1 = 0.0893 | 1013.6
342.96 K, 1042 kPa, x1 = 0.0607 | 999.5
342.96 K, 2006 kPa, x1 = 0.0607 | 999.8
342.96 K, 3028 kPa, x1 = 0.0607 | 1000.3
342.96 K, 4013 kPa, x1 = 0.0607 | 1000.7
342.96 K, 5003 kPa, x1 = 0.0607 | 1001.2
342.96 K, 5994 kPa, x1 = 0.0607 | 1001.6
342.96 K, 7004 kPa, x1 = 0.0607 | 1002
342.96 K, 8063 kPa, x1 = 0.0607 | 1002.5
342.96 K, 9140 kPa, x1 = 0.0607 | 1003
342.96 K, 10022 kPa, x1 = 0.0607 | 1003.4
342.96 K, 11032 kPa, x1 = 0.0607 | 1003.7
342.96 K, 11997 kPa, x1 = 0.0607 | 1004.1
342.96 K, 13009 kPa, x1 = 0.0607 | 1004.5
342.96 K, 14001 kPa, x1 = 0.0607 | 1004.9
342.96 K, 15005 kPa, x1 = 0.0607 | 1005.3
342.96 K, 16002 kPa, x1 = 0.0607 | 1005.7
342.96 K, 17011 kPa, x1 = 0.0607 | 1006.1
342.96 K, 17988 kPa, x1 = 0.0607 | 1006.5
342.96 K, 18992 kPa, x1 = 0.0607 | 1006.9
342.96 K, 20154 kPa, x1 = 0.0607 | 1007.3
352.84 K, 1009 kPa, x1 = 0.1302 | 1004
352.84 K, 2026 kPa, x1 = 0.1302 | 1004.3
352.84 K, 3005 kPa, x1 = 0.1302 | 1004.8
352.84 K, 4006 kPa, x1 = 0.1302 | 1005.3
352.84 K, 5004 kPa, x1 = 0.1302 | 1005.7
352.84 K, 5993 kPa, x1 = 0.1302 | 1006.1
352.84 K, 6991 kPa, x1 = 0.1302 | 1006.5
352.84 K, 7992 kPa, x1 = 0.1302 | 1006.9
352.84 K, 8994 kPa, x1 = 0.1302 | 1007.4
352.84 K, 9980 kPa, x1 = 0.1302 | 1007.8
352.84 K, 10971 kPa, x1 = 0.1302 | 1008.2
352.84 K, 11987 kPa, x1 = 0.1302 | 1008.7
352.84 K, 13040 kPa, x1 = 0.1302 | 1009.1
352.84 K, 13997 kPa, x1 = 0.1302 | 1009.5
352.84 K, 14981 kPa, x1 = 0.1302 | 1009.9
